This passage reports IC50 results from US20240279237A1, “FUSED BICYCLIC HETEROARYL COMPOUNDS USEFUL AS NLRP3 INHIBITORS” (Hoffmann-La Roche Inc., priority 2021, published 2024).

Where a name gives a salt, the structure may show the parent alone.

The target of the assay is T1, NLRP3 (Homo sapiens, UniProt Q96P20).
T1 construct: Seed THP-1 cells (25,000 cells/well) containing 1.0 μg/ml LPS in 40 μl of RPMI medium; host or cells: THP-1 cells
Description: THP-1 Cells Pyroptosis Assay. It counts as cell-based. To be noted: THP-1 cells with 1.0 μg/ml LPS; compound 3 hours; nigericin 5 μM 1 hr; resazurin readout. As for the experimental part:
The cells were routinely passaged and grown to confluency (˜10^6 cells/ml). On the day of the experiment, THP-1 cells were harvested and resuspended into RPMI medium (without FBS). The cells were then counted and viability (>90%) checked by Trypan blue (Sigma #T8154). […] To this diluted cell solution was added LPS (Sigma #L4524) to give a 1 μg/ml Final Assay Concentration (FAC). 40 μl of the final preparation was aliquoted into each well of a 96-well plate. The plate thus prepared was used for compound screening.
The following method step-by-step assay was followed for compound screening. • 1. […] Incubate for 3 hours at 37° C., 5% CO2 • 4. Add 5 μl nigericin (Sigma #N7143) (FAC 5 μM) to all wells • 5. Incubate for 1 hr at 37° C., 5% CO2 • 6. At the end of the incubation period, spin plates at 300×g for 3 mins and remove supernatant • 7. Then add 50 μl of resazurin (Sigma #R7017) (FAC 100 μM resazurin in RPMI medium without FBS) and incubate plates for a further 1-2 hours at 37° C. and 5% CO2 • 8.

T1 sequence (Q96P20 whole entry): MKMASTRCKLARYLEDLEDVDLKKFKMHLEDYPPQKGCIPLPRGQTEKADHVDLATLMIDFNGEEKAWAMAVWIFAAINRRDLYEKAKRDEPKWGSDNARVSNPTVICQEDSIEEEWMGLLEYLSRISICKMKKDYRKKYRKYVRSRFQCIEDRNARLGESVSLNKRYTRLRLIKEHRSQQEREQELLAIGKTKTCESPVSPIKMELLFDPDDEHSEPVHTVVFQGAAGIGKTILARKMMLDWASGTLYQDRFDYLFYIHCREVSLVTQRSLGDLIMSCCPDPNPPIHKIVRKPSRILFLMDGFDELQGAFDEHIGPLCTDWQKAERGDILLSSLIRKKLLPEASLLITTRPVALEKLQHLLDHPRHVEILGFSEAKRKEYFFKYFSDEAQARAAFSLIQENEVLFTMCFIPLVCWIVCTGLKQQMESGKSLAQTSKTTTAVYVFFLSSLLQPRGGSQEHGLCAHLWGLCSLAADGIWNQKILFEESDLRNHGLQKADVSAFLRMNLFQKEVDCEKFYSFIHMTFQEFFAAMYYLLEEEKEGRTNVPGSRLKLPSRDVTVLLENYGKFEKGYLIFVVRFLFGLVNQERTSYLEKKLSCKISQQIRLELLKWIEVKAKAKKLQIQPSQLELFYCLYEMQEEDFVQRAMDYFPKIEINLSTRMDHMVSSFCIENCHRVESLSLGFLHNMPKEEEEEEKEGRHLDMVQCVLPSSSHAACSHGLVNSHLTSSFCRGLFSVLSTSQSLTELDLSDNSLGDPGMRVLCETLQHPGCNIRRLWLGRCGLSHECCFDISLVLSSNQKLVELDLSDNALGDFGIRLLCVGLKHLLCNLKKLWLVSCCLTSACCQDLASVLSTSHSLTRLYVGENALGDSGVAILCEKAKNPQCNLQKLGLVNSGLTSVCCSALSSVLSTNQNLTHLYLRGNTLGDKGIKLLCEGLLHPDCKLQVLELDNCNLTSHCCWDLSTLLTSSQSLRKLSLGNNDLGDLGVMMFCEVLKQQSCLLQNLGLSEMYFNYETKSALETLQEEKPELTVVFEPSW

As for “2-[2-[[(3R or 3S)-1-Ethyl-3-piperidyl]amino]-1H-imidazo[4,5-b]pyridin-5-yl]-3-methyl-5-(trifluoromethyl)phenol [Example 18A]”, the IC50 was determined as 4.1 nM. This lies in the single-digit nanomolar range.

In the case of “2-[2-[[(3S or 3R)-1-Ethyl-3-piperidyl]amino]-1H-imidazo[4,5-b]pyridin-5-yl]-3-methyl-5-(trifluoromethyl)phenol [Example 18B]”, the IC50 came to 392 nM.

As to “3-Methyl-2-[2-[[(2R)-1-methylazetidin-2-yl]methylamino]oxazolo[4,5-b]pyridin-5-yl]-5-(trifluoromethyl)phenol or 3-methyl-2-[2-[[(2S)-1-methylazetidin-2-yl]methylamino]oxazolo[4,5-b]pyridin-5-yl]-5-(trifluoromethyl)phenol [Example 66A]”, the IC50 stood at 398 nM.

As to “3-Methyl-2-[2-[[(2S)-1-methylazetidin-2-yl]methylamino]oxazolo[4,5-b]pyridin-5-yl]-5-(trifluoromethyl)phenol or 3-methyl-2-[2-[[(2R)-1-methylazetidin-2-yl]methylamino]oxazolo[4,5-b]pyridin-5-yl]-5-(trifluoromethyl)phenol [Example 66B]”, the IC50 came out at 256 nM.

The compound “5-Chloro-2-[2-[[(3R)-1-ethyl-3-piperidyl]amino]oxazolo[4,5-b]pyridin-5-yl]-3-(trifluoromethoxy)phenol;2,2,2-trifluoroacetic acid [Example 114]” registered an IC50 of 1.1 nM.

For the compound “5-Chloro-2-[2-[[(3R)-1-ethyl-3-piperidyl]amino]oxazolo[4,5-b]pyridin-5-yl]-4-fluoro-3-methyl-phenol;2,2,2-trifluoroacetic acid salt [Example 22]”, the IC50 is 5.4 nM.

Compound `CNC1CCCC(Nc2nc3nc(-c4c(C)cc(C(F)(F)F)cc4O)ccc3o2)C1` (mixture of isomers) [Example 7, 3-Methyl-2-[2-[[3-(methylamino)cyclohexyl]amino]oxazolo[4,5-b]pyridin-5-yl]-5-(trifluoromethyl)phenol] had an IC50 of 82.1 nM.

`CCN1CCCC(Nc2nc3nc(-c4c(C)cc(C(F)(F)F)cc4O)ccc3o2)C1` (racemic) [Example 1, (rac)-2-[2-[(1-Ethyl-3-piperidyl)amino]oxazolo[4,5-b]pyridin-5-yl]-3-methyl-5-(trifluoromethyl)phenol] returned an IC50 of 1.9 nM.

As for `Cc1cc(C(F)(F)F)cc(O)c1-c1ccc2oc(N3CCOCC3CN(C)C)nc2n1` (racemic) [Example 2, (rac)-2-[2-[3-[(Dimethylamino)methyl]morpholin-4-yl]oxazolo[4,5-b]pyridin-5-yl]-3-methyl-5-(trifluoromethyl)phenol], the IC50 was 17.4 nM.

In turn, `Cc1cc(C(F)(F)F)cc(O)c1-c1ccc2oc(N3CCCC(O)C3)nc2n1` (racemic) [Example 3, (rac)-1-[5-[2-Hydroxy-6-methyl-4-(trifluoromethyl)phenyl]oxazolo[4,5-b]pyridin-2-yl]piperidin-3-ol] yielded an IC50 of 75.4 nM.

Take `Cc1cc(C(F)(F)F)cc(O)c1-c1ccc2oc(N3CCOC(CO)C3)nc2n1` (racemic) [Example 5, (rac)-[2-[2-(Hydroxymethyl)morpholin-4-yl]oxazolo[4,5-b]pyridin-5-yl]-3-methyl-5-(trifluoromethyl)phenol]: half-maximal inhibition (IC50) was put at 31.9 nM. This IC50 lies about 2.4-fold lower than the previous one.

`Cc1cc(C(F)(F)F)cc(O)c1-c1ccc2oc(C3CCC(=O)NC3)nc2n1` (racemic) [Example 9, (rac)-5-(5-(2-Hydroxy-6-methyl-4-(trifluoromethyl)phenyl)oxazolo[4,5-b]pyridin-2-yl) piperidin-2-one] displayed an IC50 of 15.3 nM.

The compound `CNC1CCCN(c2nc3nc(-c4c(C)cc(C(F)(F)F)cc4O)ccc3o2)C1` (racemic) [Example 10, (rac)-3-Methyl-2-[2-[3-(methylamino)-1-piperidyl]oxazolo[4,5-b]pyridin-5-yl]-5-(trifluoromethyl) phenol] showed an IC50 of 107 nM.

With `Cc1cc(C(F)(F)F)cc(O)c1-c1ccc2oc(NC3CCCOC3)nc2n1` (racemic) [Example 11, (rac)-3-Methyl-2-[2-(tetrahydropyran-3-ylamino)oxazolo[4,5-b]pyridin-5-yl]-5-(trifluoromethyl)phenol], the IC50 amounted to 217 nM.

The compound `Cc1cc(C(F)(F)F)cc(O)c1-c1ccc2[nH]c(C3CCCCN3C)nc2n1` (racemic) [Example 16, (rac)-3-Methyl-2-(2-(1-methylpiperidin-2-yl)-3H-imidazo[4,5-b]pyridin-5-yl)-5-(trifluoromethyl)phenol] gave an IC50 of 330 nM. Compared with the last compound, the IC50 is about 1.5-fold higher.

`Cc1cc(C(F)(F)F)cc(O)c1-c1ccc2[nH]c(C3CCCN3)nc2n1` (racemic) [Example 17, (rac)-3-Methyl-2-(2-(pyrrolidin-2-yl)-1H-imidazo[4,5-b]pyridin-5-yl)-5-(trifluoro-methyl)phenol] showed an IC50 of 183 nM. This IC50 lies about 1.8-fold lower than the previous one.

Compound `Cc1cc(C#N)cc(O)c1-c1ccc2oc(NC3CCCN4CCCC34)nc2n1` (racemic) [Example 29, (rac)-4-[2-(1,2,3,5,6,7,8,8a-Octahydroindolizin-8-ylamino)oxazolo[4,5-b]pyridin-5-yl]-3-hydroxy-5-methyl-benzonitrile] gave an IC50 of 5.1 nM.

For the compound `CCN1CCCC(Nc2nc3nc(-c4c(C)cc(C(F)(F)F)cc4O)cnc3o2)C1` (racemic) [Example 32, (rac)-2-[2-[(1-Ethyl-3-piperidyl)amino]oxazolo[4,5-b]pyrazin-5-yl]-3-methyl-5-(trifluoromethyl)phenol;2,2,2-trifluoroacetic acid salt], the IC50 amounted to 3 nM.

For the compound `Cc1cc(C(F)(F)F)cc(O)c1-c1ccc2oc(NC3CCOC3)nc2n1` (racemic) [Example 38, (rac)-3-Methyl-2-[2-(tetrahydrofuran-3-ylamino)oxazolo[4,5-b]pyridin-5-yl]-5-(trifluoromethyl)phenol], the IC50 came to 85.3 nM.

As for `Cc1cc(Cl)cc(O)c1-c1cc(N2CCCC2=O)c2oc(N[C@@H]3CCCN(C)C3)nc2n1` (racemic) [Example 60, 1-[5-(4-Chloro-2-hydroxy-6-methyl-phenyl)-2-[[rac-(3R)-1-methyl-3-piperidyl]amino]oxazolo[4,5-b]pyridin-7-yl]pyrrolidin-2-one], the IC50 amounted to 17.9 nM.

The compound `Cc1cc(C(F)(F)F)cc(O)c1-c1ccc2oc(N3CCO[C@H]4CNC[C@@H]43)nc2n1` (racemic) [Example 64, 3-Methyl-2-[2-[rac-(4aS,7aS)-3,4a,5,6,7,7a-hexahydro-2H-pyrrolo[3,4-b][1,4]oxazin-4-yl]oxazolo[4,5-b]pyridin-5-yl]-5-(trifluoromethyl)phenol;2,2,2-trifluoroacetic acid] showed an IC50 of 4.9 nM.

`Cc1cc(Cl)cc(O)c1-c1ccc2oc(N[C@@H]3CCCN(C[C@@H]4CC[C@H]4O)C3)nc2n1` (racemic) [Example 118A, 5-chloro-2-[2-[[(3R)-1-[[rac trans-2-hydroxycyclobutyl]methyl]-3-piperidyl]amino]oxazolo[4,5-b]pyridin-5-yl]-3-methyl-phenol or 5-chloro-2-[2-[[(3R)-1-[[rac cis-2-hydroxycyclobutyl]methyl]-3-piperidyl]amino]oxazolo[4,5-b]pyridin-5-yl]-3-methyl-phenol] came in with an IC50 of 50.8 nM.

`Cc1cc(Cl)cc(O)c1-c1ccc2oc(N[C@@H]3CCCN(C[C@@H]4CC[C@H]4O)C3)nc2n1` (racemic) [Example 118B, 5-chloro-2-[2-[[(3R)-1-[[rac trans-2-hydroxycyclobutyl]methyl]-3-piperidyl]amino]oxazolo[4,5-b]pyridin-5-yl]-3-methyl-phenol or 5-chloro-2-[2-[[(3R)-1-[[rac cis-2-hydroxycyclobutyl]methyl]-3-piperidyl]amino]oxazolo[4,5-b]pyridin-5-yl]-3-methyl-phenol]: inhibition was half-maximal at 30.6 nM (IC50).

With `Cc1cc(C(F)(F)F)cc(O)c1-c1ccc2oc(N3CCOCC3CN(C)C)nc2n1` (single isomer, unassigned) [Example 2A, 2-[2-[(3R or 3S)-3-[(Dimethylamino)methyl]morpholin-4-yl]oxazolo[4,5-b]pyridin-5-yl]-3-methyl-5-(trifluoromethyl)phenol], the IC50 was determined as 129 nM. This IC50 lies about 4.2-fold higher than the previous one.

In the case of `Cc1cc(C(F)(F)F)cc(O)c1-c1ccc2oc(N3CCOCC3CN(C)C)nc2n1` (single isomer, unassigned) [Example 2B, 2-[2-[(3S or 3R)-3-[(Dimethylamino)methyl]morpholin-4-yl]oxazolo[4,5-b]pyridin-5-yl]-3-methyl-5-(trifluoromethyl)phenol], the IC50 worked out at 16.9 nM.

`Cc1cc(C(F)(F)F)cc(O)c1-c1ccc2oc(N3CCCC(O)C3)nc2n1` (single isomer, unassigned) [Example 3A, (3R or 3S)-1-[5-[2-hydroxy-6-methyl-4-(trifluoromethyl)phenyl]oxazolo[4,5-b]pyridin-2-yl]piperidin-3-ol] returned an IC50 of 75 nM.

The compound `Cc1cc(C(F)(F)F)cc(O)c1-c1ccc2oc(N3CCCC(O)C3)nc2n1` (single isomer, unassigned) [Example 3B, (3S or 3R)-1-[5-[2-hydroxy-6-methyl-4-(trifluoromethyl)phenyl]oxazolo[4,5-b]pyridin-2-yl]piperidin-3-ol] yielded an IC50 of 28.6 nM. This IC50 lies about 2.6-fold lower than the previous one.
